Experimental data: ChEMBL document CHEMBL5233266, “β-Carboline as a Privileged Scaffold for Multitarget Strategies in Alzheimer's Disease Therapy” (J Med Chem, 2021)
Where “and” joins values, the source holds several entries; their conditions need not be identical. Equal values may be shown once.

How the values were obtained:
[1] = target: cGMP-specific 3',5'-cyclic phosphodiesterase (Homo sapiens, UniProt O76074); experiment: Binding affinity to PDE5 (unknown origin) assessed as inhibition constant
[2] = target: GABA-A receptor; anion channel; experiment: Displacement of [3H]flunitrazepam from GABAA (unknown origin ) receptor by radioligand binding assay; format: protein-complex assay, Homo sapiens
[3] = target: T1, Gamma-aminobutyric acid receptor subunit alpha-1 (Homo sapiens, UniProt P14867); experiment: Binding affinity to human recombinant GABAA alpha1 receptor assessed as inhibition constant incubated for 1 hrs by liquid scintillation counting analysis
T1 sequence (P14867 whole entry): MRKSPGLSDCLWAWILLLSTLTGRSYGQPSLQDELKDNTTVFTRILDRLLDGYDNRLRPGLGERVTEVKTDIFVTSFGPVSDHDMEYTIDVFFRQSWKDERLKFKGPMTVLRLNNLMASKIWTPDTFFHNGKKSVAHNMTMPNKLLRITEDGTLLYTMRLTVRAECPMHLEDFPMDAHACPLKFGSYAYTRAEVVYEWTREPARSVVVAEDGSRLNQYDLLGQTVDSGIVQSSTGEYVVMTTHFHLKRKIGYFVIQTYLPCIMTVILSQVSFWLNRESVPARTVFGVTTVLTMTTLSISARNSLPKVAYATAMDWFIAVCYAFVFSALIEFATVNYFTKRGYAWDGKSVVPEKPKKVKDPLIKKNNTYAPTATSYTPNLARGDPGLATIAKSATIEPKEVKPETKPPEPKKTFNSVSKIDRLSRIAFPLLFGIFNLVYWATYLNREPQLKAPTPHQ

[4] = target: T2, Gamma-aminobutyric acid receptor subunit alpha-2 (Homo sapiens, UniProt P47869); experiment: Binding affinity to human recombinant GABAA alpha2 receptor assessed as inhibition constant incubated for 1 hrs by liquid scintillation counting analysis
T2 sequence (P47869 whole entry): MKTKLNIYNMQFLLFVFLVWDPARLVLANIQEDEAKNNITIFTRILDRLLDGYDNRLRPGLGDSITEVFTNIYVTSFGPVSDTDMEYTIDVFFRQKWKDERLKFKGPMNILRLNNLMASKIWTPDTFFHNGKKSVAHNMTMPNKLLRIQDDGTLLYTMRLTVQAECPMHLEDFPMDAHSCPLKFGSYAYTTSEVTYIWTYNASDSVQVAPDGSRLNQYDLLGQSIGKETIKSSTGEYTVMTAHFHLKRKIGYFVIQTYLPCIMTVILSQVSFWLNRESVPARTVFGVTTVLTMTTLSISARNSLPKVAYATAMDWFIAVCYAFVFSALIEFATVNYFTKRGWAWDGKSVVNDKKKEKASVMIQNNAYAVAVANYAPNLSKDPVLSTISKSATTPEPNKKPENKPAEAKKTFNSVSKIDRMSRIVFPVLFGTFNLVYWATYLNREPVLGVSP

[5] = target: T3, Gamma-aminobutyric acid receptor subunit alpha-3 (Homo sapiens, UniProt P34903); experiment: Binding affinity to human recombinant GABAA alpha3 receptor assessed as inhibition constant incubated for 1 hrs by liquid scintillation counting analysis
T3 sequence (P34903 whole entry): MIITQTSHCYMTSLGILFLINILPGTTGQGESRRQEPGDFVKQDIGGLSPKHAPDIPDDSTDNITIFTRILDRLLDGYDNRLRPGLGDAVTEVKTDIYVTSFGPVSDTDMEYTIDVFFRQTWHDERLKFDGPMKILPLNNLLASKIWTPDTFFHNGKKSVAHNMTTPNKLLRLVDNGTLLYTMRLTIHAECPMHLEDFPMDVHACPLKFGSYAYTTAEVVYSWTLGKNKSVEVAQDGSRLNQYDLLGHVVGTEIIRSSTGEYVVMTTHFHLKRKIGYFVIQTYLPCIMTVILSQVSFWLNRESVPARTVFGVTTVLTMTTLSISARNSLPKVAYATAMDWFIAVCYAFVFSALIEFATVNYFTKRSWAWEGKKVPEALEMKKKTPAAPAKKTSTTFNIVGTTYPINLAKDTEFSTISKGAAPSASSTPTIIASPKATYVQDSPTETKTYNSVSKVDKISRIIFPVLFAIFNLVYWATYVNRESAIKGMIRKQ

[6] = target: Gamma-aminobutyric acid receptor subunit alpha-4 (Homo sapiens, UniProt P48169); experiment: Binding affinity to human recombinant GABAA alpha4 receptor assessed as inhibition constant incubated for 1 hrs by liquid scintillation counting analysis
[7] = target: T4, Gamma-aminobutyric acid receptor subunit alpha-5 (Homo sapiens, UniProt P31644); experiment: Binding affinity to human recombinant GABAA alpha5 receptor assessed as inhibition constant incubated for 1 hrs by liquid scintillation counting analysis
T4 sequence (P31644 whole entry): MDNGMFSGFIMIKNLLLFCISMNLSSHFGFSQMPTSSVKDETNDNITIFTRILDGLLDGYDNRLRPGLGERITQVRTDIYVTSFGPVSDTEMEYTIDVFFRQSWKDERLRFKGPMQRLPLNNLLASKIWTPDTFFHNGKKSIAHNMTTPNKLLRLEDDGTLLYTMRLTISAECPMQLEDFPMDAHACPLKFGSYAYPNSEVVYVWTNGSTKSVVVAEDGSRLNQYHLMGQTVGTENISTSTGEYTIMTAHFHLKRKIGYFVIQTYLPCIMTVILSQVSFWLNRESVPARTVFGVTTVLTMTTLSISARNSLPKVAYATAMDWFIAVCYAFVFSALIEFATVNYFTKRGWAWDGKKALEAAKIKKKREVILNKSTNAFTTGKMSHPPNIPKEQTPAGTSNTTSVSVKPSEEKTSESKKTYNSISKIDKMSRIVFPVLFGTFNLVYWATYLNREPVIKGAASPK

[8] = target: Gamma-aminobutyric acid receptor subunit alpha-6 (Homo sapiens, UniProt Q16445); experiment: Binding affinity to human recombinant GABAA alpha6 receptor assessed as inhibition constant incubated for 1 hrs by liquid scintillation counting analysis
[9] = target: 5-hydroxytryptamine receptor 2A (Rattus norvegicus, UniProt P14842); experiment: Displacement of [3H]-ketanserin from rat 5-HT2A expressed in mouse NIH/3T3 cells assessed as inhibition constant by Cheng-Prusoff equation analysis; format: cell-based
[10] = target: 5-hydroxytryptamine receptor 5A (Homo sapiens, UniProt P47898); experiment: Binding affinity to 5-HT5AR (unknown origin) assessed as inhibition constant
[11] = target: T5, 5-hydroxytryptamine receptor 2C (Homo sapiens, UniProt P28335); experiment: Binding affinity to 5-HT2C (unknown origin) assessed as inhibition constant
T5 sequence (P28335 whole entry): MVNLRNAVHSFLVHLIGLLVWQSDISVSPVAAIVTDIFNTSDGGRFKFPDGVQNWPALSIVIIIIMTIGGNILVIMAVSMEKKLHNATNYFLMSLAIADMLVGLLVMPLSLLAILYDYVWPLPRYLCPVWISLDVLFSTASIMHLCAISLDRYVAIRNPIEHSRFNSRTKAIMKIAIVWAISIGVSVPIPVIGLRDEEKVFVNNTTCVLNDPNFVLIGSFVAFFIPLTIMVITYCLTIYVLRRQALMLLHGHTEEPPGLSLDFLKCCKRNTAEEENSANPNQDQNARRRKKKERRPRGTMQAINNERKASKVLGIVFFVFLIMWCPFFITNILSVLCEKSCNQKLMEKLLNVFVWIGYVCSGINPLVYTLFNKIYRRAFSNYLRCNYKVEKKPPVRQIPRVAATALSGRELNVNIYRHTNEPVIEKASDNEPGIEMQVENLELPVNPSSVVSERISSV

[12] = target: T6, 5-hydroxytryptamine receptor 2B (Homo sapiens, UniProt P41595); experiment: Binding affinity to 5-HT2BR (unknown origin) assessed as inhibition constant
[13] = target: 5-hydroxytryptamine receptor 2B (Rattus norvegicus, UniProt P30994); experiment: Displacement of [3H]-ketanserin from rat 5-HT2B expressed in mouse NIH/3T3 cells assessed as inhibition constant by Cheng-Prusoff equation analysis; format: cell-based
[14] = target: T6, 5-hydroxytryptamine receptor 2B; experiment: Binding affinity to 5-HT2B (unknown origin) assessed as equilibrium binding constant
[15] = target: T7, Acetylcholinesterase (Homo sapiens, UniProt P22303); experiment: Inhibition of AChE (unknown origin)
[16] = target: Cholinesterase (Homo sapiens, UniProt P06276); experiment: Inhibition of BuChE (unknown origin)
[17] = target: Dual specificity tyrosine-phosphorylation-regulated kinase 1A (Homo sapiens, UniProt Q13627); experiment: Inhibition of DYRK1A (unknown origin)
[18] = target: Glutamate receptor ionotropic, NMDA 2B (Homo sapiens, UniProt Q05586+Q13224); experiment: Inhibition of NMDA receptor NR2B subunit (unknown origin)
[19] = target: T7, Acetylcholinesterase; experiment: Inhibition of AChE (unknown origin) by Ellman's method

Sequence of 5-hydroxytryptamine receptor 2A (P14842 whole entry): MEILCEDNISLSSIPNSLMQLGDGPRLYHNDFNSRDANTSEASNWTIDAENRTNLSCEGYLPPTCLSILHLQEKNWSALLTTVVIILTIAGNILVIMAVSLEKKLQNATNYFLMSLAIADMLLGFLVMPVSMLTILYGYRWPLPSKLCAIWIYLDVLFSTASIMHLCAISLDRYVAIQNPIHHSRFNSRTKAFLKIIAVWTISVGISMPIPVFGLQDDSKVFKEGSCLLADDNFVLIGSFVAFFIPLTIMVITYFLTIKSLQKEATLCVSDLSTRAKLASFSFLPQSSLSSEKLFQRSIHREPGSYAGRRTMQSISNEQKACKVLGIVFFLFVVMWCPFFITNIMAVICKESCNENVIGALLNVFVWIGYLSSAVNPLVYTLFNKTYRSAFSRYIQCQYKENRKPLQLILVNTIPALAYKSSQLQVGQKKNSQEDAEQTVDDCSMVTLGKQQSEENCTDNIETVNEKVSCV
Sequence of 5-hydroxytryptamine receptor 5A (P47898 whole entry): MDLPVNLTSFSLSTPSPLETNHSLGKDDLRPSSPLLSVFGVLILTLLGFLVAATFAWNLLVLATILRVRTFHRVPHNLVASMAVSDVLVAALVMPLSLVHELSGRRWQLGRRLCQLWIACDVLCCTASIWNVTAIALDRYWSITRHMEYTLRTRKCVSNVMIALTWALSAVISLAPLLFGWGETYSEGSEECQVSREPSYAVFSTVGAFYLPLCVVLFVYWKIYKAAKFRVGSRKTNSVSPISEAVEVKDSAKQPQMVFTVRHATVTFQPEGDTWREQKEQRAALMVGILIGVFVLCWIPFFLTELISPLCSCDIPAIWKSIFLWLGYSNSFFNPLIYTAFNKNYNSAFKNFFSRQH
T6 sequence (P41595 whole entry): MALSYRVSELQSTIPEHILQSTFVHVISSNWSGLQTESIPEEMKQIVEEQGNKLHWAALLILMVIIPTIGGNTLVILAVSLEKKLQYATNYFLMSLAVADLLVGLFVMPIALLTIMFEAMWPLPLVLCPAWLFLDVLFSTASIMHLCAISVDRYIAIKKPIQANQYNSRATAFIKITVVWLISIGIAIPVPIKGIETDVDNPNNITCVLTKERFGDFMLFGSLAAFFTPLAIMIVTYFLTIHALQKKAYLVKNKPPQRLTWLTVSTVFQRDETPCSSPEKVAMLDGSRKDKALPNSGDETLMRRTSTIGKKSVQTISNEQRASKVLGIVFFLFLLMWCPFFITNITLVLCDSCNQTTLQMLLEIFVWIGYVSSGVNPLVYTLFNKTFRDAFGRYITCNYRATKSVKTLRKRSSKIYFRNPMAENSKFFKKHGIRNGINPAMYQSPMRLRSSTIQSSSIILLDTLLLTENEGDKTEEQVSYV
T7 sequence (P22303 whole entry): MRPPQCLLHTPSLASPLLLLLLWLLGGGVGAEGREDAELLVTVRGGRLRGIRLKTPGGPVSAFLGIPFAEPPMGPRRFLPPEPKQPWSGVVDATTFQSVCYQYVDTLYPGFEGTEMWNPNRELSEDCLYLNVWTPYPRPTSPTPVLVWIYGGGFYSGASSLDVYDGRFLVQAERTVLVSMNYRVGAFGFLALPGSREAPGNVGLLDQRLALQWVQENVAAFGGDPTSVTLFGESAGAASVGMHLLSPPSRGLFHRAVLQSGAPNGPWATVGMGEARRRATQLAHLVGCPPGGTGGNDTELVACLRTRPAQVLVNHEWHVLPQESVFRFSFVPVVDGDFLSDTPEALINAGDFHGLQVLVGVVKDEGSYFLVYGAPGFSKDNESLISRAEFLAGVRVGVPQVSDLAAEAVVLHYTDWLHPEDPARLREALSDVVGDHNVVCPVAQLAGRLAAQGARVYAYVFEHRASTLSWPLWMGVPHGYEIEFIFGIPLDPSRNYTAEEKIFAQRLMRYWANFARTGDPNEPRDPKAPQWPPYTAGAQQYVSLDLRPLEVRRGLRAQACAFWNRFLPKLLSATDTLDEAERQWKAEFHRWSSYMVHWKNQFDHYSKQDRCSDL
Sequence of Glutamate receptor ionotropic, NMDA 2B (Q13224 whole entry, one chain of several): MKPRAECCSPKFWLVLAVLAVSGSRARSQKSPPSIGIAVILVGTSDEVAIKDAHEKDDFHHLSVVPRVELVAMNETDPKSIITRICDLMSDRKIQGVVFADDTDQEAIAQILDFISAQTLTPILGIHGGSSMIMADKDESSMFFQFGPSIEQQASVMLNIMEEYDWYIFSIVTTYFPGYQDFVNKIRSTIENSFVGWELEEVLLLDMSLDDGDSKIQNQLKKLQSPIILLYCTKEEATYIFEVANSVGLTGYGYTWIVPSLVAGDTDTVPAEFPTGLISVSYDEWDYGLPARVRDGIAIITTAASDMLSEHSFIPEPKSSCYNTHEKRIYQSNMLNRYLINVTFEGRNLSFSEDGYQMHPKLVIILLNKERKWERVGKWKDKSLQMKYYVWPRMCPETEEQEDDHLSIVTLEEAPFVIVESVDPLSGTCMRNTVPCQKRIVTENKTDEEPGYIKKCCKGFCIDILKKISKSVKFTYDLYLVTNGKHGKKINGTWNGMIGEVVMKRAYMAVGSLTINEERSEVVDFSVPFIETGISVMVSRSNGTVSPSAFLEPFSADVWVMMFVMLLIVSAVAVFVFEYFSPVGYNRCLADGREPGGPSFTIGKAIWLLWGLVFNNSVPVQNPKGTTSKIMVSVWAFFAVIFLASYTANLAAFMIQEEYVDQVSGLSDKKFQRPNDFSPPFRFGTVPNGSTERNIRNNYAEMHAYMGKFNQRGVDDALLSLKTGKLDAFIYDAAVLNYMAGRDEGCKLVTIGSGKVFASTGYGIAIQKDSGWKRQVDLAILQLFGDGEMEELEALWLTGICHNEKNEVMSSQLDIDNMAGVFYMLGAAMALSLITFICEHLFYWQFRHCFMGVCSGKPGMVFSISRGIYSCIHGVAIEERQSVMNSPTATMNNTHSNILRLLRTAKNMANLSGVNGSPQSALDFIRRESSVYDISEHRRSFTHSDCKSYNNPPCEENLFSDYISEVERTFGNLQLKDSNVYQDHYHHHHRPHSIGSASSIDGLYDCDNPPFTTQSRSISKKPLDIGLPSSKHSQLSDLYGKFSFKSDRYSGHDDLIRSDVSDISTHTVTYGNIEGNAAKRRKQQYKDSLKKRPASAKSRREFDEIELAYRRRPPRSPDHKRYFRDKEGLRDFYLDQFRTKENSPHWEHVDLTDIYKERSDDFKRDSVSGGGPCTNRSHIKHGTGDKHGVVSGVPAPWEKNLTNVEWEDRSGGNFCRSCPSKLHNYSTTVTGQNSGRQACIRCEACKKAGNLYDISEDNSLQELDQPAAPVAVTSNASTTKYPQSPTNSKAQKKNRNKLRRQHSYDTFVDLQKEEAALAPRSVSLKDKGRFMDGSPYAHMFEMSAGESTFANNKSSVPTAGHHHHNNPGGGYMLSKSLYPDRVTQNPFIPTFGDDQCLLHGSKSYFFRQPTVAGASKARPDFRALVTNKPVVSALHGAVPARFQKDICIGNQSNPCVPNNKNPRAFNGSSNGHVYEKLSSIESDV
Sequence of Cholinesterase (P06276 whole entry): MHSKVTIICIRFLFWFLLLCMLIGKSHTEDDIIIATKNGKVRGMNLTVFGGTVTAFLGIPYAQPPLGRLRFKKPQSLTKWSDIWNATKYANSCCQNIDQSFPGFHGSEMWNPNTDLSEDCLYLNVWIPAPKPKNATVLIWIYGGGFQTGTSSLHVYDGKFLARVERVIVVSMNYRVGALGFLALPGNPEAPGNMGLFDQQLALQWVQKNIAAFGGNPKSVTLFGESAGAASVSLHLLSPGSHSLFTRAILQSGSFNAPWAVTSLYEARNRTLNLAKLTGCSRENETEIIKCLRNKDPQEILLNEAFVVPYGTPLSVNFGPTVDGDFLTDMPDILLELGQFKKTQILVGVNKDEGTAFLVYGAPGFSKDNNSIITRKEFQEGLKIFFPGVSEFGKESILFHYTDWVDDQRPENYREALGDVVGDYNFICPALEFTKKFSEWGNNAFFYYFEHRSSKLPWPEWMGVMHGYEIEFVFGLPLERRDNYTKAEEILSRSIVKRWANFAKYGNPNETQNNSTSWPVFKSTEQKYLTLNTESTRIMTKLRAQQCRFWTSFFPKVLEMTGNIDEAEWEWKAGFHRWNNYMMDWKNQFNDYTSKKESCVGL
Sequence of Gamma-aminobutyric acid receptor subunit alpha-4 (P48169 whole entry): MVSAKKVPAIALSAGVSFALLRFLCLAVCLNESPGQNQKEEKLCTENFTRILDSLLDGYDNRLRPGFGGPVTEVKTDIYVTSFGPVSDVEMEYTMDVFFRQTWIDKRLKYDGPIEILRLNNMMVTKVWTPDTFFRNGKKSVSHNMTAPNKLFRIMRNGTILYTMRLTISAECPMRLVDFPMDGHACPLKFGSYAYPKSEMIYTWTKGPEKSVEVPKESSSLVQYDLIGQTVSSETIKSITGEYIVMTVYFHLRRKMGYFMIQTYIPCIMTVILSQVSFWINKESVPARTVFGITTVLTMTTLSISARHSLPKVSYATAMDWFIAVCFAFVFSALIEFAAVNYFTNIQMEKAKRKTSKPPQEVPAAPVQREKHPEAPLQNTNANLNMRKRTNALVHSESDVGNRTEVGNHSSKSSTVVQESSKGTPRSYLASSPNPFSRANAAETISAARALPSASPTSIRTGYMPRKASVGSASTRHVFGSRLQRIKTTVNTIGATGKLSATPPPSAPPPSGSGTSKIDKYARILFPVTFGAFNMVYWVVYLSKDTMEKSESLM
Sequence of Gamma-aminobutyric acid receptor subunit alpha-6 (Q16445 whole entry): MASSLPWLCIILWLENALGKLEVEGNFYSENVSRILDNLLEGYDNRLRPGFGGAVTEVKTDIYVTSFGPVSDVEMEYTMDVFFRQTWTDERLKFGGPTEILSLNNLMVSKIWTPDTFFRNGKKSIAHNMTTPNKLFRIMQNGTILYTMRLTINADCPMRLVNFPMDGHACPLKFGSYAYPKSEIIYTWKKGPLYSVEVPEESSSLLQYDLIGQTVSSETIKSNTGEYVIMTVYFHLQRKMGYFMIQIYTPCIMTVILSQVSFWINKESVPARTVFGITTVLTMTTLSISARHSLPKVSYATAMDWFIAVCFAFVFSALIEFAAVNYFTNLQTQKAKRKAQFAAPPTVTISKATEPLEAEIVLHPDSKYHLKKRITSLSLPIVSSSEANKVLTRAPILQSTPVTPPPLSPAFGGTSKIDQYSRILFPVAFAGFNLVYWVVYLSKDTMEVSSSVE

Nc1ccc(-c2ccc(C(=O)N3CCc4c([nH]c5ccccc45)C3c3ccc4c(c3)OCO4)o2)cc1 (centres undefined)
Ki [1]: 64 nM

COCc1c(C(=O)OC(C)C)ncc2[nH]c3ccc(OCc4ccccc4)cc3c12 [ABECARNIL]
IC50 [2]: 1 nM
Ki [3]: 1 nM
Ki [4]: 2 nM
Ki [5]: 4 nM
Ki [6]: 1200 nM
Ki [7]: 5 nM
Ki [8]: 6400 nM

Brc1cccc2[nH]c3c(c12)CCNC3
Ki [9]: < 180 nM

Oc1ccc2[nH]c3c(-c4c[nH]c5ccccc45)nccc3c2c1
Ki [10]: 170 nM
Ki [11]: 170 nM
Ki [12]: 170 nM

C=CC(=O)N1CCc2c(n(CCCCN3CCN(c4ccccc4OC)CC3)c3ccccc23)C1
Ki [9]: 44 nM

COc1ccc(CC2NCCc3c2[nH]c2cc(C)c(C)cc32)cc1OC (centres undefined)
Ki [9]: 5 nM
Ki [13]: 0.2 nM
Kb [14]: < 0.3 nM and 0.08 nM

c1ccc2cc(-c3nccc4c3[nH]c3ccccc34)ccc2c1
Ki [10]: 1500 nM
Ki [12]: 1500 nM

c1ccc2c(c1)[nH]c1cnccc12 [NORHARMANE]
IC50 [15]: > 40000 nM
IC50 [16]: > 40000 nM
IC50 [17]: > 1800 nM
IC50 [2]: 1600 nM

CC(C)CCn1c2c(c3c(O)cc(O)cc31)CCn1c-2nc2ccccc2c1=O
Ki [1]: 86 nM

Oc1ccc2[nH]c3c(c2c1)CCN(CCCCc1ccccc1)C3
IC50 [18]: 140 nM

CC(C)n1c2ccccc2c2cc[n+](-c3ccccc3)cc21
IC50 [15]: 540 nM
IC50 [16]: 37000 nM
IC50 [19]: 3100 nM

COc1ccc2[nH]c3c(-c4cn(C)c5ccccc45)nccc3c2c1
Ki [10]: 100 nM
Ki [11]: 200 nM
Ki [12]: 100 nM

COC(=O)c1cc2c(cn1)[nH]c1ccccc12 [BETA-CCM]
IC50 [2]: 1 nM
Ki [3]: 2 nM
Ki [4]: 7 nM
Ki [5]: 72 nM
Ki [6]: 1000 nM
Ki [7]: 44 nM
Ki [8]: 4400 nM

COc1cccc2[nH]c3c(c12)CCN=C3
Ki [11]: 65 nM

O=C1CCC[C@@H]2c3[nH]c4ccccc4c3C[C@@H](CO)N12
IC50 [18]: 30000 nM
